Results as given in patent publication US20240366594A1, “Small Molecule Inhibitors of Formation of Neutrophil-Derived Extracellular Traps (NETosis) and Uses Thereof” (The Brigham and Women's Hospital, Inc., priority 2021, published 2024).

What was measured:
Murine neutrophils [1] = assay: Phagocytosis assay with fluorescent E. coli; assay type: cell-based, mouse; conditions: ricolinostat 10 μM, fluorescent E. coli 1 h; FIG. 1H
Description: (§1) FIGS. 1A-H. Class I/II HDACs drive NET formation • (A and B) Freshly purified human (A) or mouse (B) neutrophils were treated with the indicated HDAC inhibitors at different doses (10, 2, 0.4, 0.08 μM), or with GSK484 (10 μM), for 1 h and then stimulated with 1 μM PMA for 3 h. Cells were fixed and stained with anti-citrullinated histone H3 (CitH3) antibody. NETosis induction was measured as the level of anti-CitH3 fluorescent signal. PMA alone represents 100% of NET induction. “-”: Cells treated with the highest dose of the indicated drug but not activated with PMA. • (C and D) Human neutrophils were treated, or not, with ricolinostat or GSK484 and then stimulated with 1 μM PMA. NETosis induction was measured as area of nuclei stained with DAPI. (C) 3D reconstruction of nuclei in each treatment (grid size 7.8 μm). (D) Quantification of DAPI signal from multiple fields of view (D) (n=9 for unstimulated, not pretreated with any drug [NT] and ricolinostat, n=7 for GSK484). • (E and F) Human neutrophils were treated as in (C-D), and immunoblot analysis of the indicated proteins was performed. Relative quantification of band intensity was analyzed with ImageJ software (F). White violins plots depict the quantification of histone H3 acetylation; red violin plots depict the quantification of histone H3 citrullination. […] ROS production was measured by luminescence with luminol-HRP. […]

human neutrophils = assay: ROS production (luminol-HRP luminescence) in human neutrophils; assay type: cell-based; conditions: ricolinostat 10 μM, 1 μM PMA 3 h; FIG. 1G left
Description: as §1

Murine neutrophils [2] = assay: ROS production (luminol-HRP luminescence) in murine neutrophils; assay type: cell-based, mouse; conditions: ricolinostat 10 μM, 1 μM PMA 3 h; FIG. 1G right
Description: as §1

O=C(CCCCCCNC(=O)c1cnc(N(c2ccccc2)c2ccccc2)nc1)NO [ricolinostat]
bacterial phagocytosis (percentage of neutrophils positive for E. coli) (Murine neutrophils [1]): excluded that ricolinostat administration altered | reactive oxygen species (ROS) production (human neutrophils): did not alter | reactive oxygen species (ROS) production (Murine neutrophils [2]): did not alter
